# Reference: patent US20090298178A1, “GROWTH FACTORS FOR PRODUCTION OF DEFINITIVE ENDODERM” (priority 2008, published 2009)
# B1: GDF3: TGF-beta family member also known as Vg-related gene 2 (protein, UniProt Q9NR23 251-364, looked up)
# Growth/differentiation factor …: AAIPVPKLSCKNLCHRHQLFINFRDLGWHKWIIAPKGFMANYCHGECPFSLTISLNSSNYAFMQALMHAVDPEIPQAVCIPTKLSPISMLYQDNNDNVILRHYEDMVVDECGCG
# B2: activin B: TGF-beta family growth factor (R&D Systems) (protein, UniProt P09529 293-407, looked up)
# Inhibin beta B chain: GLECDGRTNLCCRQQFFIDFRLIGWNDWIIAPTGYYGNYCEGSCPAYLAGVPGSASSFHTAVVNQYRMRGLNPGTVNSCCIPTKLSTMSMLYFDDEYNIVKRDVPNMIVEECGCA
# B3: TGF-beta3: isoform of transforming growth factor beta (protein, UniProt P10600 301-412, looked up)
# Transforming growth factor …: ALDTNYCFRNLEENCCVRPLYIDFRQDLGWKWVHEPKGYYANFCSGPCPYLRSADTTHSTVLGLYNTLNPEASASPCCVPQDLEPLTILYYVGRTPKVEQLSNMVVKSCKCS
# What was measured:
# hES cells = settings: McLean et al. Stem Cells 25:29-38 2007; cited from earlier work
# [1] = tested on: hES cells (CyT49; passage 35); assay: Differentiation of hES cells to definitive endoderm with activin A plus Wnt3a or GSK3 inhibitors, real-time quantitative PCR at 48 hours (Example 4); type: cell-based, human; settings: with 100 ng/mL activin A; inhibitor at 10 or 100 nM; FIG. 6A-B
# Description: Undifferentiated hES cells (CyT49; passage 35) were maintained substantially as described in Example 1 above. Ten hES cell culture plates were then differentiated in RPMI (Mediatech) supplemented with Glutamax, penicillin/streptomycin, and varying concentrations of defined FBS (HyClone). FBS concentrations were 0% for the first 24 h and 0.2% for the second 24 h. Additionally, 0.1% BSA (Invitrogen/Gibco) was added on the first day only. All plates received 100 ng/mL activin A for both days. […] Replicate samples were collected from each culture condition at 48 hours after differentiation commenced and analyzed for relative gene expression using real-time quantitative PCR.
# [2] = tested on: hES cells (CyT49; passage 41); assay: Differentiation of hES cells to definitive endoderm (stage 1) with TGF-beta member growth factors, real-time quantitative PCR (Example 1); type: cell-based, human; settings: for effectiveness for induction of definitive endoderm differentiation derived from hES cells: compared with activin A; for fold induction of SOX17 gene expression as compared to undifferentiated hESCs / fold induction of FOXA2 gene expression as compared to undifferentiated hESCs: 100 ng/ml factor, 75 ng/mL Wnt3a on first day, day 2 of differentiation; for fold induction of SOX17 gene expression as compared to undifferentiated hESCs: FIG. 2C; for efficiency in generating definitive endoderm cell populations: sufficient amounts, compared to Activin A and activin B
# Description: Human embryonic stem (hES) cells were differentiated in vitro to definitive endoderm (stage 1) for about 2-4 days substantially as described in D'Amour et al. 2006 Nat Biotechnol 24(11):1392-401 and U.S. Patent Application Publication Number 2007/0154984, which are herein incorporated in their entireties. Briefly, undifferentiated human embryonic stem (hES) cells were maintained on mouse embryo fibroblast feeder layers (Millipore, formerly Chemicon or Specialty Media) or on human serum coated plates (Valley Biomedical) in DMEM/F12 (Mediatech) supplemented with 20% KnockOut serum replacement (Invitrogen/Gibco), 1 mM nonessential amino acids (Invitrogen/Gibco), Glutamax (Invitrogen/Gibco), penicillin/streptomycin (Invitrogen/ Gibco), 0.55 mM 2-mercaptoethanol (Invitrogen/Gibco) and 4 ng/ml to 20 ng/mL recombinant human FGF2 (R&D Systems). Low dosages of Activin A (10-25 ng/ml, R&D Systems) were added to the growth culture medium to help maintain undifferentiated growth. Cultures were either manually passaged, or enzymatically passaged using 5 ug/mL dispase (Invitrogen/Gibco), or passaged using Accutase (Innovative Cell Technologies #AT104) at 1:4-1:15 split ratios every 3-7 days. Before initiating differentiation, hES cells were given a brief wash in PBS+/+ (PBS+/+ refers to PBS containing both calcuim and magnesium) (Mediatech).
# Four hES cell culture plates (CyT49; passage 41) were then differentiated in RPMI (Mediatech) supplemented with Glutamax, penicillin/streptomycin, and with either: i) 100 ng/mL activin A, ii) 100 ng/mL of activin B (R&D Systems), iii) 100 ng/mL of GDF8, or iv) 100 ng/mL of GDF11 (R&D Systems) and varying concentrations of defined FBS (HyClone). Additionally, 0.1% BSA (Invitrogen/Gibco) and 75 ng/mL Wnt3a (R&D Systems) were added on the first day (d0) of differentiation. FBS concentrations were 0% for the first 24 h and 0.2% for the second 24 h. Replicate samples were collected from each culture condition at 0, 24 and 48 hours after differentiation commenced and analyzed for relative gene expression using real-time quantitative PCR.
# hES cells (CyT49) = assay: Further differentiation of definitive endoderm to pancreatic endoderm and endocrine cells, real-time PCR at day 9 (Example 2); type: cell-based, human; settings: definitive endoderm produced with 100 ng/mL factor, compared with activin A, FIG. 3
# Description: (§1) Human ES cell cultures were maintained and differentiated substantially as described above in Example 1, and further differentiated to foregut endoderm (stage 2) and then onto pancreatic endoderm and pancreatic endocrine cells (stages 3 and 4). After 48 hours of differentiation to definitive endoderm (stage 1) the cells were briefly washed in PBS+/+ and then further differentiated in RPMI supplemented with 0.2% FBS, Insulin-Transferrin-Selenium (1:1000), Glutamax, penicillin/streptomycin, and 25 ng/mL KGF (R&D Systems) for 3 days. On the first day of stage 2, the culture also received TGF-beta inhibitor No. 4 (3-(6-Methylpyridin-2-yl)-4-(4-quinolyl)-1-phenylthiocarbamoyl-1H-pyrazole) at 2.5 uM (EMD Bioscience). After three days in stage 2 the cells were then differentiated for one day in DMEM with B27 supplement (1:100) containing all-trans retinoic acid (RA) at 0.2 uM and KAAD-cyclopamine at 0.25 uM. Following the single day of retinoid exposure, the cells were cultured in DMEM with B27 (1:100) containing noggin at 40 ng/ml. At day 9 of total differentiation, replicate samples were collected from each culture condition and analyzed for relative gene expression using real-time quantitative PCR.
# [3] = tested on: hES cells (CyT49; passage 48); assay: Differentiation of hES cells with other TGF-beta family member proteins, real-time quantitative PCR (Example 3); type: cell-based, human; settings: for CDX2 induction level, fold higher expression over that observed with the activin A treatment: GDF3 500 ng/ml, TGF-beta3 100 ng/mL, FIG. 4C
# Description: Undifferentiated human embryonic stem (hES) cells (CyT49; passage 48) were maintained substantially as described in Example 1 above. Seven hES cell culture plates were then differentiated in RPMI (Mediatech) supplemented with Glutamax, penicillin/streptomycin, and either: i) activin A (100 ng/ml), ii) TGF-beta1 (100 ng/ml), iii) TGF-beta3 (100 ng/mL), iv) TGF-beta2 (200 ng/ml), v) GDF3 (500 ng/ml), vi) GDF9 (4 ug/ml), or vii) GDF15 (2.5 ug/ml) and varying concentrations of defined FBS (HyClone). Additionally, 0.1% BSA (Invitrogen/Gibco) and 75 ng/mL Wnt3a (R&D Systems) were added on the first day (d0) of differentiation. FBS concentrations were 0% for the first 24 h and 0.2% for the second 24 h. Replicate samples were collected from each culture condition at 0, 24 and 48 hours after differentiation commenced and analyzed for relative gene expression using real-time quantitative PCR.
# [4] = tested on: hES cells (CyT49; passage 48); assay: Further differentiation to pancreatic endoderm and endocrine cells, real-time PCR at 12 days (Example 3); type: cell-based, human; settings: 12 days of differentiation
# Description: as §1
# Such conditions are described in Example 2 above. In this example, however, the stage 4 noggin treatment lasted for 6 days and replicate samples were taken for real-time PCR analysis at a total of 12 days of differentiation as compared to 9 days of differentiation in Example 2. […] Similarly, the pancreatic endoderm or endocrine cells expressing endocrine markers NKX2-2 and INS were typically not detected in the non-activin A treated plates (FIG. 5C-D). Stated another way, the activin A treated plates were 1200-fold or more higher in expression of these markers than the non-Activin A treated plates.
molecule,measurement,setting,value
insulin: protein that binds to the insulin receptor and can induce signaling,insulin concentration detrimental for the production of definitive endoderm cells from hES cells,hES cells,≥ 0.2 µg/mL
O=C1Nc2cc(Br)ccc2/C1=C1/Nc2ccccc2/C1=N\O [GSK3 inhibitor No. 9],differentiation of hES cells to definitive endoderm,[1],Neither GSK3 inhibitor No. 9 (“BIO”) nor GSK3 inhibitor No. 8 (GVIII) at 10 or 100 nM resulted in substantial differentiation
COc1ccc(CNC(=O)Nc2ncc([N+](=O)[O-])s2)cc1 [GSK3 inhibitor No. 8],differentiation of hES cells to definitive endoderm,[1],Neither GSK3 inhibitor No. 9 (“BIO”) nor GSK3 inhibitor No. 8 (GVIII) at 10 or 100 nM resulted in substantial differentiation
GDF11: TGF-beta family member with approximately 90% identity to myostatin,effectiveness for induction of definitive endoderm differentiation derived from hES cells,[2]; 100 ng/mL,as effective as activin A
same,fold induction of SOX17 gene expression as compared to undifferentiated hESCs,[2],1306 fold
same,fold induction of FOXA2 gene expression as compared to undifferentiated hESCs,[2]; FIG. 2D,382 fold
same,efficiency in generating definitive endoderm cell populations,[2],more efficient compared to activin B
same,subsequent differentiation of definitive endoderm to pancreatic endoderm expressing PDX1 and PTF1A or endocrine cells expressing NKX2-2,hES cells (CyT49),as effective
activin A: TGF-beta family growth factor used at 100 ng/mL to produce definitive endoderm,definitive endoderm production as indicated by induction of SOX17 and CER1 gene expression,"[3]; activin A 100 ng/ml, other ligands 100 ng/ml to 4 ug/ml, 75 ng/mL Wnt3a on first day, FIG. 4A-B",definitive endoderm was produced only in the activin A treatment condition
same,"expression of endocrine markers NKX2-2 and INS, fold higher than the non-Activin A treated plates",[4]; FIG. 5C-D,≥ 1200 fold
same,"production of pancreatic endoderm and endocrine cell types as indicated by induction of PDX1, PTF1A, NKX2-2 and INS gene expression",[4]; FIGS. 5A-D,produced only in the activin A treatment condition
same,"PDX1 expression level, fold higher in the presence of activin A as compared to GDF15","[4]; comparator GDF15, FIG. 5A","14,497 fold"
same,"PDX1 expression level, fold higher in the presence of activin A as compared to TGF-beta1","[4]; comparator TGF-beta1, FIG. 5A",1413 fold
"GDF8: TGF-beta family member, also referred to as myostatin",effectiveness for induction of definitive endoderm differentiation derived from hES cells,[2]; 100 ng/mL,as effective as activin A
same,fold induction of SOX17 gene expression as compared to undifferentiated hESCs,[2],1324 fold
same,fold induction of FOXA2 gene expression as compared to undifferentiated hESCs,[2]; FIG. 2D,438 fold
same,efficiency in generating definitive endoderm cell populations,[2],more efficient compared to activin B
same,subsequent differentiation of definitive endoderm to pancreatic endoderm expressing PDX1 and PTF1A or endocrine cells expressing NKX2-2,hES cells (CyT49),as effective
B1,"CDX2 induction level, fold higher expression over that observed with the activin A treatment",[3],900 fold
B2,expression of ISL1 as compared to activin A treated cultures,"[2]; 100 ng/mL, FIG. 2B, indicates mesoderm differentiation",higher expression
same,FOXA2 induction (in words),"[2]; 100 ng/mL, FIG. 2D",lower
same,subsequent differentiation of definitive endoderm to pancreatic endoderm expressing PDX1 and PTF1A or endocrine cells expressing NKX2-2,hES cells (CyT49),less effective
B3,"CDX2 induction level, fold higher expression over that observed with the activin A treatment",[3],"2,667 fold"
